Each compound was assayed against phosphorylated active hERK2 enzyme (Homo sapiens, UniProt P28482) (assay: Active human ERK2 (hERK2) Activity Assay (IMAP-FP)). Details: 10 point titration, 3 μM starting concentration, 0.5 nM hERK2, 30 μM ATP, 60 minutes reaction.
Format: biochemical
Method: Activated ERK2 activity was determined in an IMAP-FP assay (Molecular Devices). Using this assay format, the potency (IC50) of each compound was determined from a 10 point (1:3 serial dilution, 3 μM starting compound concentration) titration curve using the following outlined procedure. […] Following a 15 minute compound & enzyme incubation, each reaction was initiated by the addition of 10 μL kinase buffer containing 2.45 μM ERK2 IMAP substrate peptides and 75 μM ATP. The final reaction in each well of 25 μL consists of 0.5 nM hERK2, 900 nM unlabeled peptide, 80 nM labeled-peptide, and 30 μM ATP. Phosphorylation reactions were allowed to proceed for 60 minutes and were immediately quenched by the addition of 60 μL IMAP detection beads (1:1000 dilutions) in IMAP binding buffer (Molecular Devices) with 24 mM NaCl. Plates were read on EnVision reader after 60 minutes binding equilibration using Fluorescence Polarization protocol (Perkin Elmer).

Chain of phosphorylated active hERK2 enzyme (P28482 whole entry): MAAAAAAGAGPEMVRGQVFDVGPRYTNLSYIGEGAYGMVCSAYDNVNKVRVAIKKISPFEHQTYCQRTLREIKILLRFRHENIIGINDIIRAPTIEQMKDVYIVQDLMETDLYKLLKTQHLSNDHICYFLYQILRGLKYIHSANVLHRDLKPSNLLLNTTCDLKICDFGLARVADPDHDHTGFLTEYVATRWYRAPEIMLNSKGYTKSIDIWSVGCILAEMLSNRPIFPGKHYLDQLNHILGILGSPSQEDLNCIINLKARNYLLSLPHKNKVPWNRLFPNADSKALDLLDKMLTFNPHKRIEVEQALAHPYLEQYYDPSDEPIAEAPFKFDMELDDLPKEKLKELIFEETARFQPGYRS

Compound | IC50 [nM]
CCn1ncc2cc3nc(c21)CCCOC(C)(C)[C@@H](c1ccccc1)NC(=O)N3 [Example 12, (9R)-1-Ethyl-10,10-dimethyl-9-phenyl-1,6,9,10,13,14-hexahydro-12H-5,15-(azeno)pyrazolo[4,3-i][1,4,6]oxadiazacyclotetradecin-7(8H)-one] | 734
CCn1ncc2cc3nc(c21)NCCOC[C@H](c1ccccc1)NC(=O)N3 [Example 21, (9S)-1-Ethyl-9-phenyl-1,6,9,10,13,14-hexahydro-12H-5,15-(azeno)pyrazolo[4,3-i][1,4,6,12]oxatriazacyclotetradecin-7(8H)-one] | 5.01
CCn1ncc2cc3nc(c21)C[C@H](O)COC[C@H](c1ccc(Cl)c(F)c1)NC(=O)N3 [Example 54, (9S,13S)-1-Ethyl-9-(4-chloro-3-fluorophenyl)-13-hydroxy-1,6,9,10,13,14-hexahydro-12H-5,15-(azeno)pyrazolo[4,3-i][1,4,6]oxadiazacyclotetradecin-7(8H)-one] | 5.09
Cn1ncc2cc3nc(c21)NCCOC[C@H](c1ccccc1)NC(=O)N3 [Example 22, (9 S)-1-Methyl-9-phenyl-1,6,9,10,13,14-hexahydro-12H-5,15-(azeno)pyrazolo[4,3-i][1,4,6,12]oxatriazacyclotetradecin-7(8 H)-one] | 7.91
COCCCn1ncc2cc3nc(c21)Cn1cc(nn1)CC(c1ccccc1)NC(=O)N3 (stereo not shown) [Example 37, 1-(3-Methoxypropyl)-9-phenyl-1,6,9,10-tetrahydro-5,16-(azeno)-14,11-(metheno)pyrazolo[4,3-l][1,2,3,7,9]pentaazacyclopentadecin-7(8H,15H)-one] | 241
CCn1ncc2cc3nc(c21)NCCCCC(c1ccccc1)NC(=O)N3 (stereo not shown) [Example 18, 1-Ethyl-9-phenyl-1,6,9,10,11,12,13,14-octahydro-5,15-(azeno)pyrazolo[4,3-f][1,3,9]triazacyclotetradecin-7(8H)-one] | 15.7
CCn1ncc2cc3nc(c21)C[C@@H](OC)COC[C@@H](c1ccccc1)NC(=O)N3 (stereo in doubt) [Example 44, (9R,13R)-1-Ethyl-13-methoxy-9-phenyl-1,6,9,10,13,14-hexahydro-12H-5,15-(azeno)pyrazolo[4,3-i][1,4,6]oxadiazacyclotetradecin-7(8H)-one] | 32.8
CCn1ncc2cc3nc(c21)OCCC[C@@](C)(O)[C@H](c1ccccc1)NC(=O)N3 [Example 28, (9S,10R)-1-Ethyl-10-hydroxy-10-methyl-9-phenyl-1,6,8,9,10,11,12,13-octahydro-7H-5,15-(azeno)pyrazolo[3,4-c][1,7,9]oxadiazacyclotetradecin-7-one] | 144
CCn1ncc2cc3nc(c21)CCCO[C@@H]([C@H](C)O)[C@@H](c1ccccc1)NC(=O)N3 [Example 48, (9R,10R)-1-Ethyl-10-[(1S)-1-hydroxyethyl]-9-phenyl-1,6,9,10,13,14-hexahydro-12H-5,15-(azeno)pyrazolo[4,3-i][1,4,6]oxadiazacyclotetradecin-7(8H)-one] | 4.11
CCn1ncc2cc3nc(c21)C[C@@H](O)COC[C@H](c1cccc(F)c1)NC(=O)N3 [Example 51, (9S,13R)-1-Ethyl-9-(3-fluorophenyl)-13-hydroxy-1,6,9,10,13,14-hexahydro-12H-5,15-(azeno)pyrazolo[4,3-i][1,4,6]oxadiazacyclotetradecin-7(8H)-one] | 3.91
Cn1ncc2cc3nc(c21)CNCCCC(c1ccccc1)NC(=O)N3 (stereo not shown) [Example 31, 1-Methyl-9-phenyl-1,6,9,10,11,12,13,14-octahydro-5,15-(azeno)pyrazolo[3,4-k][1,3,8]triazacyclotetradecin-7(8H)-one] | 832
CCn1ncc2cc3nc(c21)[C@@H]1C[C@@H]1COC[C@H](c1ccccc1)NC(=O)N3 [Example 7, (9S,12aS,13 aR)-1-Ethyl-9-phenyl-1,6,9,10,12,12a,13,13a-octahydro-5,14-(azeno)cyclopropa[l]pyrazolo[4,3-i][1,4,6]oxadiazacyclotetradecin-7(8H)-one] | 11.6
Cn1ncc2cc3nc(c21)COCCCC(c1ccccc1)NC(=O)N3 (stereo not shown) [Example 32, 1-Methyl-9-phenyl-1,6,9,10,11,12-hexahydro-5,15-(azeno)pyrazolo[4,3-k][1,6,8]oxadiazacyclotetradecin-7(8H,14H)-one] | 50.9
CCn1ncc2cc3nc(c21)/C=C\COC(C)(C)[C@H](c1ccccc1)NC(=O)N3 [Example 41, (9S,13Z)-1-Ethyl-10,10-dimethyl-9-phenyl-1,6,9,10-tetrahydro-12H-5,15-(azeno)pyrazolo [4,3-i][1,4,6]oxadiazacyclotetradecin-7(8H)-one] | 634
CCn1ncc2cc3nc(c21)CCCO[C@@H]([C@@H](C)O)[C@@H](c1ccccc1)NC(=O)N3 [Example 47, (9R,10R)-1-Ethyl-10-[(1R)-1-hydroxyethyl]-9-phenyl-1,6,9,10,13,14-hexahydro-12H-5,15-(azeno)pyrazolo[4,3-i][1,4,6]oxadiazacyclotetradecin-7(8H)-one] | 687
CCn1ncc2cc3nc(c21)CCCO[C@H](CO)[C@H](c1ccccc1)NC(=O)N3 [Example 14, (9S,10S)-1-Ethyl-10-(hydroxymethyl)-9-phenyl-1,6,9,10,13,14-hexahydro-12H-5,15-(azeno)pyrazolo[4,3-i][1,4,6]oxadiazacyclotetradecin-7(8H)-one] | 3.44

Compound | IC50 [nM]
CCn1ncc2cc3nc(c21)CC(CO)COC[C@H](c1ccccc1)NC(=O)N3 (stereo partly shown) [Example 58, (9 S)-1-ethyl-13-(hydroxymethyl)-9-phenyl-1,6,9,10,13,14-hexahydro-12H-5,15-(azeno)pyrazolo[4,3-i][1,4,6]oxadiazacyclotetradecin-7(8H)-one] | 5.09
Cc1cc(-n2ncc3cc4nc(c32)Cn2cc(nn2)CC(c2ccccc2)NC(=O)N4)ccn1 (single isomer, unassigned) [Example 38, 1-(2-Methylpyridin-4-yl)-9-phenyl-1,6,9,10-tetrahydro-5,16-(azeno)-14,11-(metheno)pyrazolo[4,3-l][1,2,3,7,9]pentaazacyclopentadecin-7(8H,15H)-one] | 87.3
O=C1Nc2cc3cnn(C(F)F)c3c(n2)/C=C\COC[C@H](c2ccccc2)N1 [Example 10, (9S,13Z)-1-(Difluoromethyl)-9-phenyl-1,6,9,10-tetrahydro-12H-5,15-(azeno)pyrazolo[4,3-i][1,4,6]oxadiazacyclotetradecin-7(8H)-one] | 4.16
CCn1ncc2cc3nc(c21)CC(C)(O)COC[C@H](c1ccccc1)NC(=O)N3 (stereo partly drawn) [Example 5, (9S)-1-Ethyl-13-hydroxy-13-methyl-9-phenyl-1,6,9,10,13,14-hexahydro-12H-5,15-(azeno)pyrazolo[4,3-i][1,4,6]oxadiazacyclotetradecin-7(8H)-one] | 114
Cn1ncc2cc3nc(c21)CCCCCC(c1ccccc1)NC(=O)N3 (stereo not shown) [Example 30, 1-Methyl-9-phenyl-1,6,9,10,11,12,13,14-octahydro-5,15-(azeno)pyrazolo[4,3-f][1,3]diazacyclotetradecin-7(8H)-one] | 230
Cc1c2nnn1Cc1nc(cc3cnn(C)c13)NC(=O)NC(c1ccccc1)C2 (stereo not shown) [Example 40, 1,18-Dimethyl-9-phenyl-1,6,9,10-tetrahydro-5,16-(azeno)-14,11-(metheno)pyrazolo[4,3-l][1,2,3,7,9]pentaazacyclopentadecin-7(8H,15H)-one] | 1950
CCn1ncc2cc3nc(c21)CCCO[C@H]([C@@H](C)O)[C@H](c1ccccc1)NC(=O)N3 [Example 45, (9 S,10 S)-1-Ethyl-10-[(1R)-1-hydroxyethyl]-9-phenyl-1,6,9,10,13,14-hexahydro-12H-5,15-(azeno)pyrazolo[4,3-i][1,4,6]oxadiazacyclotetradecin-7(8H)-one] | 287
CCn1ncc2cc3nc(c21)OCCCCC(c1ccccc1)NC(=O)N3 (stereo not shown) [Example 16, 1-Ethyl-9-phenyl-1,6,8,9,10,11,12,13-octahydro-7H-5,15-(azeno)pyrazolo [3,4-c][1,7,9]oxadiazacyclotetradecin-7-one] | 85.4
CCn1ncc2cc3nc(c21)CC(=O)COC[C@H](c1ccccc1)NC(=O)N3 [Example 43, (9 S)-1-Ethyl-9-phenyl-1,6,9,10-tetrahydro-12H-5,15-(azeno)pyrazolo [4,3-i][1,4,6]oxadiazacyclotetradecine-7,13(8H,14H)-dione] | 11.2
CCn1ncc2cc3nc(c21)CCCOC(C)(C)[C@H](c1ccccc1)NC(=O)N3 [Example 11, (9S)-1-Ethyl-10, 10-dimethyl-9-phenyl-1,6,9,10,13,14-hexahydro-12H-5,15-(azeno)pyrazolo [4,3-i][1,4,6]oxadiazacyclotetradecin-7(8H)-one] | 16.2
CCn1ncc2cc3nc(c21)CCCO[C@H]([C@H](C)O)[C@H](c1ccccc1)NC(=O)N3 [Example 46, (9 S,10 S)-1-Ethyl-10-[(1 S)-1-hydroxyethyl]-9-phenyl-1,6,9,10,13,14-hexahydro-12H-5,15-(azeno)pyrazolo[4,3-i][1,4,6]oxadiazacyclotetradecin-7(8H)-one] | 48.4
Cn1ncc2cc3nc(c21)Cn1cc(nn1)C[C@H](c1ccccc1)NC(=O)N3 [Example 35, (9R)-1-Methyl-9-phenyl-1,6,9,10-tetrahydro-5,16-(azeno)-14,11-(metheno)pyrazolo[4,3-l][1,2,3,7,9]pentaazacyclopentadecin-7(8H,15H)-one] | 69.4
CCn1ncc2cc3nc(c21)C[C@H](O)COC[C@H](c1cccc(F)c1)NC(=O)N3 [Example 52, (9S,13S)-1-Ethyl-9-(3-fluorophenyl)-13-hydroxy-1,6,9,10,13,14-hexahydro-12H-5,15-(azeno)pyrazolo[4,3-i][1,4,6]oxadiazacyclotetradecin-7(8H)-one] | 14.5
CCn1ncc2cc3nc(c21)C[C@H](O)COC[C@H](c1cccc(Cl)c1)NC(=O)N3 [Example 56, (9S,13S)-9-(3-chlorophenyl)-1-ethyl-13-hydroxy-1,6,9,10,13,14-hexahydro-12H-5,15-(azeno)pyrazolo[4,3-i][1,4,6]oxadiazacyclotetradecin-7(8H)-one] | 0.996
Cn1ncc2cc3nc(c21)OCCOC[C@H](c1ccccc1)NC(=O)N3 [Example 29, (9S)-1-methyl-9-phenyl-1,6,9,10,12,13-hexahydro-5,15-(azeno)pyrazolo[4,3-i][1,12,4,6]dioxadiazacyclotetradecin-7(8H)-one] | 49.2
